{"source": "the NIST ThermoML archive (doi:10.1016/j.jct.2015.01.005)", "conditions": "for molar entropy: 101.33 kPa, Small (less than 1 g) adiabatic calorimetry; for vapor or sublimation pressure: Calculated from knudsen effusion weight loss; for Triple point temperature: DTA", "note": "Several values for one entry are separate records, joined by “and”; a condition that tells them apart may be missing. Equal entries are not always repeated. ± gives the expanded uncertainty stated by the source.", "data": [{"smiles": "O[C@@H]1[C@@H](O)[C@@H]2OC[C@@H](O2)[C@H]1O", "note": "[1,6-anhydro-β-D-glucopyranose]", "values": [{"measurement": "molar entropy", "setting": "5 K, Crystal 2", "result": "0.145 ± 0.026", "unit": "J/K/mol"}, {"measurement": "molar entropy", "setting": "10 K, Crystal 2", "result": "0.302 ± 0.029", "unit": "J/K/mol"}, {"measurement": "molar entropy", "setting": "15 K, Crystal 2", "result": "1.222 ± 0.047", "unit": "J/K/mol"}, {"measurement": "molar entropy", "setting": "20 K, Crystal 2", "result": "2.884 ± 0.072", "unit": "J/K/mol"}, {"measurement": "molar entropy", "setting": "25 K, Crystal 2", "result": "5.162 ± 0.095", "unit": "J/K/mol"}, {"measurement": "molar entropy", "setting": "30 K, Crystal 2", "result": "7.89 ± 0.17", "unit": "J/K/mol"}, {"measurement": "molar entropy", "setting": "35 K, Crystal 2", "result": "10.92 ± 0.19", "unit": "J/K/mol"}, {"measurement": "molar entropy", "setting": "40 K, Crystal 2", "result": "14.15 ± 0.21", "unit": "J/K/mol"}, {"measurement": "molar entropy", "setting": "45 K, Crystal 2", "result": "17.49 ± 0.24", "unit": "J/K/mol"}, {"measurement": "molar entropy", "setting": "50 K, Crystal 2", "result": "20.92 ± 0.26", "unit": "J/K/mol"}, {"measurement": "molar entropy", "setting": "60 K, Crystal 2", "result": "27.86 ± 0.32", "unit": "J/K/mol"}, {"measurement": "molar entropy", "setting": "70 K, Crystal 2", "result": "34.84 ± 0.38", "unit": "J/K/mol"}, {"measurement": "molar entropy", "setting": "80 K, Crystal 2", "result": "41.77 ± 0.42", "unit": "J/K/mol"}, {"measurement": "molar entropy", "setting": "90 K, Crystal 2", "result": "48.63 ± 0.52", "unit": "J/K/mol"}, {"measurement": "molar entropy", "setting": "100 K, Crystal 2", "result": "55.42 ± 0.57", "unit": "J/K/mol"}, {"measurement": "molar entropy", "setting": "110 K, Crystal 2", "result": "62.19 ± 0.62", "unit": "J/K/mol"}, {"measurement": "molar entropy", "setting": "120 K, Crystal 2", "result": "68.89 ± 0.67", "unit": "J/K/mol"}, {"measurement": "molar entropy", "setting": "130 K, Crystal 2", "result": "75.51 ± 0.72", "unit": "J/K/mol"}, {"measurement": "molar entropy", "setting": "140 K, Crystal 2", "result": "82.05 ± 0.76", "unit": "J/K/mol"}, {"measurement": "molar entropy", "setting": "150 K, Crystal 2", "result": "88.52 ± 0.81", "unit": "J/K/mol"}, {"measurement": "molar entropy", "setting": "160 K, Crystal 2", "result": "94.93 ± 0.86", "unit": "J/K/mol"}, {"measurement": "molar entropy", "setting": "170 K, Crystal 2", "result": "101.3 ± 0.9", "unit": "J/K/mol"}, {"measurement": "molar entropy", "setting": "180 K, Crystal 2", "result": "107.6 ± 0.9", "unit": "J/K/mol"}, {"measurement": "molar entropy", "setting": "190 K, Crystal 2", "result": "113.9 ± 1", "unit": "J/K/mol"}, {"measurement": "molar entropy", "setting": "200 K, Crystal 2", "result": "120.2 ± 1", "unit": "J/K/mol"}, {"measurement": "molar entropy", "setting": "210 K, Crystal 2", "result": "126.4 ± 1.1", "unit": "J/K/mol"}, {"measurement": "molar entropy", "setting": "220 K, Crystal 2", "result": "132.6 ± 1.1", "unit": "J/K/mol"}, {"measurement": "molar entropy", "setting": "230 K, Crystal 2", "result": "138.9 ± 1.2", "unit": "J/K/mol"}, {"measurement": "molar entropy", "setting": "240 K, Crystal 2", "result": "145.1 ± 1.2", "unit": "J/K/mol"}, {"measurement": "molar entropy", "setting": "250 K, Crystal 2", "result": "151.3 ± 1.2", "unit": "J/K/mol"}, {"measurement": "molar entropy", "setting": "260 K, Crystal 2", "result": "157.5 ± 1.3", "unit": "J/K/mol"}, {"measurement": "molar entropy", "setting": "270 K, Crystal 2", "result": "163.7 ± 1.4", "unit": "J/K/mol"}, {"measurement": "molar entropy", "setting": "280 K, Crystal 2", "result": "170 ± 1.4", "unit": "J/K/mol"}, {"measurement": "molar entropy", "setting": "290 K, Crystal 2", "result": "176.3 ± 1.4", "unit": "J/K/mol"}, {"measurement": "molar entropy", "setting": "298.15 K, Crystal 2", "result": "181.4 ± 1.4", "unit": "J/K/mol"}, {"measurement": "molar entropy", "setting": "300 K, Crystal 2", "result": "182.5 ± 1.4", "unit": "J/K/mol"}, {"measurement": "molar entropy", "setting": "310 K, Crystal 2", "result": "188.8 ± 1.6", "unit": "J/K/mol"}, {"measurement": "molar entropy", "setting": "320 K, Crystal 2", "result": "195.1 ± 1.6", "unit": "J/K/mol"}, {"measurement": "molar entropy", "setting": "330 K, Crystal 2", "result": "201.5 ± 1.6", "unit": "J/K/mol"}, {"measurement": "molar entropy", "setting": "340 K, Crystal 2", "result": "207.9 ± 1.6", "unit": "J/K/mol"}, {"measurement": "molar entropy", "setting": "350 K, Crystal 2", "result": "214.4 ± 1.8", "unit": "J/K/mol"}, {"measurement": "vapor or sublimation pressure", "setting": "353.55 K, Crystal 2", "result": "2.63e-05 ± 1.7e-06", "unit": "kPa"}, {"measurement": "vapor or sublimation pressure", "setting": "353.56 K, Crystal 2", "result": "2.36e-05 ± 1.5e-06", "unit": "kPa"}, {"measurement": "vapor or sublimation pressure", "setting": "358.59 K, Crystal 2", "result": "4.61e-05 ± 2.9e-06", "unit": "kPa"}, {"measurement": "molar entropy", "setting": "360 K, Crystal 2", "result": "220.9 ± 1.8", "unit": "J/K/mol"}, {"measurement": "vapor or sublimation pressure", "setting": "363.6 K, Crystal 2", "result": "8.11e-05 ± 5.1e-06", "unit": "kPa"}, {"measurement": "vapor or sublimation pressure", "setting": "368.61 K, Crystal 2", "result": "0.00014 ± 9e-06", "unit": "kPa"}, {"measurement": "vapor or sublimation pressure", "setting": "368.62 K, Crystal 2", "result": "0.000141 ± 9e-06 kPa and 0.00014 ± 9e-06 kPa"}, {"measurement": "molar entropy", "setting": "370 K, Crystal 2", "result": "227.4 ± 1.8", "unit": "J/K/mol"}, {"measurement": "vapor or sublimation pressure", "setting": "373.63 K, Crystal 2", "result": "0.000248 ± 1.5e-05 kPa and 0.000254 ± 1.6e-05 kPa"}, {"measurement": "vapor or sublimation pressure", "setting": "373.64 K, Crystal 2", "result": "0.000243 ± 1.5e-05", "unit": "kPa"}, {"measurement": "vapor or sublimation pressure", "setting": "378.63 K, Crystal 2", "result": "0.00041 ± 2.6e-05", "unit": "kPa"}, {"measurement": "vapor or sublimation pressure", "setting": "378.64 K, Crystal 2", "result": "0.000426 ± 2.7e-05", "unit": "kPa"}, {"measurement": "vapor or sublimation pressure", "setting": "378.65 K, Crystal 2", "result": "0.000416 ± 2.6e-05", "unit": "kPa"}, {"measurement": "molar entropy", "setting": "380 K, Crystal 2", "result": "234.1 ± 1.9", "unit": "J/K/mol"}, {"measurement": "vapor or sublimation pressure", "setting": "383.65 K, Crystal 2", "result": "0.000688 ± 4.2e-05 kPa and 0.000723 ± 4.5e-05 kPa"}, {"measurement": "vapor or sublimation pressure", "setting": "383.66 K, Crystal 2", "result": "0.000727 ± 4.5e-05 kPa and 0.000742 ± 4.6e-05 kPa"}, {"measurement": "molar entropy", "setting": "384 K, Crystal 1", "result": "301.8 ± 2.6", "unit": "J/K/mol"}, {"measurement": "molar entropy", "setting": "384 K, Crystal 2", "result": "236.7 ± 1.9", "unit": "J/K/mol"}, {"measurement": "Triple point temperature", "setting": "Crystal 1", "result": "454 ± 1", "unit": "K"}, {"measurement": "Triple point temperature", "setting": "Crystal 2", "result": "384 ± 1", "unit": "K"}]}]}
